Drawing on patent US9926302B2, “Heteroaryl substituted heterocyclyl sulfones” (priority 2014, dated 2018), this text covers inhibition for 23 compounds.

The experiment deals with T1, Human CaV2.2 channels (Homo sapiens, UniProt Q00975).
T1 construct: expressed in transfected cells
T1 sequence (P54289 947-1103): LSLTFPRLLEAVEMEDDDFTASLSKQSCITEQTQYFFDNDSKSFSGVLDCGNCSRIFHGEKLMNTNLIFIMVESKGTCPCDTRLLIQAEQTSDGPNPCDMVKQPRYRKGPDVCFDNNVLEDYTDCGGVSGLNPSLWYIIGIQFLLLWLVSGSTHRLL
T1 sequence (P54289 25-946): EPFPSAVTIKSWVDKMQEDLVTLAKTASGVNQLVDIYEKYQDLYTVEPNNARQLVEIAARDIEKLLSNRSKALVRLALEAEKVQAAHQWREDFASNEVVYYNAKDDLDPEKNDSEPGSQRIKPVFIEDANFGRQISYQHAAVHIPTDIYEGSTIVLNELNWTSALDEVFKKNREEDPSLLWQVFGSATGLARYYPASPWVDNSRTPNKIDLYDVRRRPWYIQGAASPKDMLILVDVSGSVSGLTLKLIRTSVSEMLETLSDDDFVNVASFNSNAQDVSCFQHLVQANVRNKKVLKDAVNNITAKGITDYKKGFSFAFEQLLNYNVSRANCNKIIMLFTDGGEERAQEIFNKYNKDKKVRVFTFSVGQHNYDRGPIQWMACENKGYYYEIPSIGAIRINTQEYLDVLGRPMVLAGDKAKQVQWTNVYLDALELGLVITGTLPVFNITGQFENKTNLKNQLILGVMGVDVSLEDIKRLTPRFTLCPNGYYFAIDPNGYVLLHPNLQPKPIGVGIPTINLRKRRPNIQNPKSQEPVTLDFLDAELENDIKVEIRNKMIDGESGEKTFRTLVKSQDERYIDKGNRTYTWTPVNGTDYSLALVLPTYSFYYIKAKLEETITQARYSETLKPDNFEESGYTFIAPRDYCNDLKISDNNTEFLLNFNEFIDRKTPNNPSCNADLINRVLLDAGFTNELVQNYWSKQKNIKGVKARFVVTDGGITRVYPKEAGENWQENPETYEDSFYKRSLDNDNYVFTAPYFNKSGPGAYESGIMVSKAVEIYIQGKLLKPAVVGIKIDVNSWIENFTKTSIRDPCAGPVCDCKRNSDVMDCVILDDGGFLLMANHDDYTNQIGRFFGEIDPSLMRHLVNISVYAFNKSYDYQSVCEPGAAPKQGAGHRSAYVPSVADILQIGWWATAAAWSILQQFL
T1 sequence (P54284 whole entry, further chain): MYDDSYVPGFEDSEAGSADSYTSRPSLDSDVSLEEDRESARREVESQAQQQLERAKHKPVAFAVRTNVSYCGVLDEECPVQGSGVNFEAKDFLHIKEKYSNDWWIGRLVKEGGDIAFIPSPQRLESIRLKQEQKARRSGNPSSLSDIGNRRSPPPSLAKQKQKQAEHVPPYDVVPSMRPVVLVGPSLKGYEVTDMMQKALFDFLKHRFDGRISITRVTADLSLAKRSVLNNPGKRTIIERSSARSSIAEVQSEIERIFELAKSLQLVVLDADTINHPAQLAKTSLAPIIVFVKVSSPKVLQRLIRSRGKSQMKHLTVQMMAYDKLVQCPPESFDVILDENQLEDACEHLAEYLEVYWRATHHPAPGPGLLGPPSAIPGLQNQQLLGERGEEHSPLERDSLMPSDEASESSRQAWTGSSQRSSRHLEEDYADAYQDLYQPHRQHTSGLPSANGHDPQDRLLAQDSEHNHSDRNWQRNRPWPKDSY
T1 sequence (Q00975 whole entry): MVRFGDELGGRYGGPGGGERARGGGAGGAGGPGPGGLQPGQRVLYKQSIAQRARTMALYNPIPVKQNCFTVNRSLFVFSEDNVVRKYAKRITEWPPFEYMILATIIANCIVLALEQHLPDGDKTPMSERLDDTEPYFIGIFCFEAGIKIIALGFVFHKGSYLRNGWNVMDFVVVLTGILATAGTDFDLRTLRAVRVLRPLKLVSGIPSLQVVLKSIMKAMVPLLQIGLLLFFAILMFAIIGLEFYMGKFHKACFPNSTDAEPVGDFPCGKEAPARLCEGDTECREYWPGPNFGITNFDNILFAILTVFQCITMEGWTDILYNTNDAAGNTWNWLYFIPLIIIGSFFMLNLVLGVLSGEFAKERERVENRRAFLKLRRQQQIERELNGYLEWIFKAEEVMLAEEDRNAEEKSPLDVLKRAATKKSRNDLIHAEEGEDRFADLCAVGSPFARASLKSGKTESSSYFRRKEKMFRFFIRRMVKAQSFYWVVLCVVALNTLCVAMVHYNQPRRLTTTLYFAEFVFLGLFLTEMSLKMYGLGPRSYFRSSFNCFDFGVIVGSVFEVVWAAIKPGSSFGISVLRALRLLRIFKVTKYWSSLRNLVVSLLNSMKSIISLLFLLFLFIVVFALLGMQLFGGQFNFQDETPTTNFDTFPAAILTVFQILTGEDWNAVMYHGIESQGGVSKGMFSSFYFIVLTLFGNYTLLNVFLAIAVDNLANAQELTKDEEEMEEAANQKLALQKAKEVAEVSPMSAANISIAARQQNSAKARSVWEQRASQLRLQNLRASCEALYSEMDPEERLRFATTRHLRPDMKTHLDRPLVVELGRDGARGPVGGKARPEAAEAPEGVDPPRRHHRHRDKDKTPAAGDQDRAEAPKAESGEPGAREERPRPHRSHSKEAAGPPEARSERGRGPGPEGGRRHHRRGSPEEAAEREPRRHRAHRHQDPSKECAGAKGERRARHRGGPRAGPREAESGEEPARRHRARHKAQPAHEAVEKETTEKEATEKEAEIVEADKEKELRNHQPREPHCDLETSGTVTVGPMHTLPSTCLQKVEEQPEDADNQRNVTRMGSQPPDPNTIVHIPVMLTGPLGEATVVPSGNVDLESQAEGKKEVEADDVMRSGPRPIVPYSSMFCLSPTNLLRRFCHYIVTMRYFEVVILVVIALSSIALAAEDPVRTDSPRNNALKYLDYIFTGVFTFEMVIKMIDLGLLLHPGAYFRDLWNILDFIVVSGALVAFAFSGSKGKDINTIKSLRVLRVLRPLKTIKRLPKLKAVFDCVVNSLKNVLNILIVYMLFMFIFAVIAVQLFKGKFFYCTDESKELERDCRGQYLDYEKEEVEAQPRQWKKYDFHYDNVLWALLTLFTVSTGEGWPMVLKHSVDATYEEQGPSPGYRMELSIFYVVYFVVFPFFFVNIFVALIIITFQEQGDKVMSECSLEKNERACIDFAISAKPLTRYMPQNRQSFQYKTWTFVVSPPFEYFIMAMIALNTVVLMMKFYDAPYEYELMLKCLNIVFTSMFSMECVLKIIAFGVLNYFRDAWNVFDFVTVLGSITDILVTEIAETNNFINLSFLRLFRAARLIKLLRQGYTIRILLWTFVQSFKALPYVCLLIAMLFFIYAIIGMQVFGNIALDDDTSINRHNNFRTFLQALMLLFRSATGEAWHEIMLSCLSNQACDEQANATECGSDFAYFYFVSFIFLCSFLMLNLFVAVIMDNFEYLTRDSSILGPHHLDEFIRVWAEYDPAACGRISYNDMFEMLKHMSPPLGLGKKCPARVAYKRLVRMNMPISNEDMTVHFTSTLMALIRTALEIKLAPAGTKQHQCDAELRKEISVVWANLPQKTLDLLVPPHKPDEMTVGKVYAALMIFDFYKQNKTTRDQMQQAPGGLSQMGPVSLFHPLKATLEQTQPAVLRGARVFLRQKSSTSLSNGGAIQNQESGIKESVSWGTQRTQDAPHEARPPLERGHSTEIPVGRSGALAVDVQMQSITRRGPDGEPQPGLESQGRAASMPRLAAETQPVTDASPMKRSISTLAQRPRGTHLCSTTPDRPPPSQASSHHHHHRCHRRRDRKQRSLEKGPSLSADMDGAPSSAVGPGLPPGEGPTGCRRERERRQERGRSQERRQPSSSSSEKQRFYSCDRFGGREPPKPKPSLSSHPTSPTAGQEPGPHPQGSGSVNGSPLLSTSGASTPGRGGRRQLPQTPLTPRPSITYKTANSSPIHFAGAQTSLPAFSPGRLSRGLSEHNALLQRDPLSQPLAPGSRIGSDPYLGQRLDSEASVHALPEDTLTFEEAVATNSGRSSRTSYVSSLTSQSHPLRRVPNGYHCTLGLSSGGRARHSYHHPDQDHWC
Briefly: Fluorescence assay for CaV2.2 channels using potassium depolarization to induce channel opening (FLIPR, Fluo 4). Format: cell-based. To be noted: HEK293, 3 μM test compound; alternative assay buffer 30 mM KCl (inactivated channel state); HEK293 cells stably expressing human CaV2.2; read-out: Activity Category: %-Inhib (CaV2.2) @3 μM @30 mM KCl. From the text: In the process, the Ca^2+ influx is quantified in the FLIPR assay with the aid of a Ca^2+-sensitive dye (type Fluo-4, Molecular Probes Europe BV, Leiden, the Netherlands) in a fluorescent imaging plate reader (FLIPR 3, Molecular Devices, Sunnyvale, USA), as described hereinafter.
2.1 Fluorescence Assay for CaV2.2 Channels Using Potassium Depolarization to Induce Channel Opening
Human CaV2.2 channels were stably expressed in HEK293 cells together with alpha2-delta and beta subunits of voltage gated calcium channels. In addition, an inwardly rectifying potassium channel (Kir2.3) was stably expressed in these cells to augment control of the cell membrane potential by the concentration of extracellular potassium ions. Raise of the extracellular potassium concentration leads to depolarization of the membrane potential and thus regulates the voltage dependent state of CaV2.2 channels. For preparation, cells were seeded in black poly-D-lysine coated 96-well plates (Becton Dickinson, Biocoat 4640) in 100 μL medium [500 mL DMEM/F-12 plus Glutamax (Invitrogen 31331-093) plus 5.5 mL MEM NEAA 100× (Invitrogen 11140-035) plus 50 mL FBS decomplemented (Invitrogen 10270-106) plus 200 μg/mL Geneticin (Invitrogen 10131-027) plus 50 μg/mL Hygromycin B (Invitrogen 10687-010) plus 2 μg/mL Blasticidin (anti-bl5b Invivo-Gen) plus 0.2 μg/mL Puromycin (A 11138-03)] at a cell density of 30.000 cells per well. Plates were incubated at 37° C. (5% CO2) for 20 to 23 h. On the day of experiment medium was discarded and cells were loaded with Fluo 4 by addition of 100 μL of basic assay buffer (10 mM HEPES, 1 mM KCl, 149 mM NaCl, 0.8 mM CaCl2, 1.7 mM MgCl2, 10 mM Glucose, 0.1% BSA. pH 7.4) containing 2 μM Fluo 4 (Molecular Probes; F-14201), 0.01% pluronic acid (Molecular Probes; P-6866) and 2.5 mM probenecid (Molecular Probes; P36400). Cells were incubated in the dark at 25° C. for 60 min. Then dye containing buffer was discarded and 100 μL basic (1 mM KCl) or alternative (30 mM KCl) assay buffer was added. The alternative assay buffer contained altered concentrations of KCl (30 mM) and NaCl (120 mM) and was used in order to promote the inactivated channel state. After that 25 μL of basic or alternative assay buffer with or without test compound were added and cells were incubated again in the dark at 25° C. for 15 min. Fluorescence intensity was measured on a FLIPR 3 instrument (Molecular Devices Corp., Sunnyvale, Calif.) with excitation at 480 nm and emission at 535 nm. After continuously reading fluorescence for 30 sec, 50 μL of basic assay buffer containing 210 mM KCl (NaCl omitted) were added for depolarization. Peak fluorescent signal intensity was determined and the amplitude of the peak signal, normalized to base line, was used to measure channel inhibition by test compounds.
Regarding `CCC1(S(=O)(=O)c2cccc(C(F)(F)F)c2)CCOC(c2nnc(C(F)(F)F)o2)C1` (racemic) [SC-242, 2-[4-Ethyl-4-[[3-(trifluoromethyl)phenyl]sulfonyl]-tetrahydro-pyran-2-yl]-5-(trifluoromethyl)-[1,3,4]oxadiazole], the inhibition at 3 µM was in the range of 40 to 75%.

Take `COc1cc(OC)c(C2CC(C)(S(=O)(=O)c3cccc(C(F)(F)F)c3)CCO2)cn1` (racemic) [SC-247, 2,4-Dimethoxy-5-[4-methyl-4-[[3-(trifluoromethyl)phenyl]sulfonyl]-tetrahydro-pyran-2-yl]-pyridine]: the inhibition at 3 µM fell in the range of 75 to 95%. The figure for `COc1cc(C)c(C2CC(C)(S(=O)(=O)c3cccc(C(F)(F)F)c3)CCO2)cn1` (racemic) [SC-252, 2-Methoxy-4-methyl-5-[4-methyl-4-[[3-(trifluoromethyl)phenyl]sulfonyl]-tetrahydro-pyran-2-yl]-pyridine] is 75 to 95%; for `COc1cc(F)c(C2CC(C)(S(=O)(=O)c3cccc(C(F)(F)F)c3)CCO2)cn1` (racemic) [SC-259, 4-Fluoro-2-methoxy-5-[4-methyl-4-[[3-(trifluoromethyl)phenyl]sulfonyl]-tetrahydro-pyran-2-yl]-pyridine] it is over 95%; for `CC(C)Oc1ccc(C2CC(C)(S(=O)(=O)c3cccc(C(F)(F)F)c3)CCO2)cn1` (racemic) [SC-302, 2-Isopropoxy-5-[4-methyl-4-[[3-(trifluoromethyl)phenyl]sulfonyl]-tetrahydro-pyran-2-yl]-pyridine] it is over 95%. The result for `CCC1(S(=O)(=O)c2cccc(C(F)(F)F)c2)CCOC(c2cccc(C)n2)C1` (racemic) [SC-303, 2-[4-Ethyl-4-[[3-(trifluoromethyl)phenyl]sulfonyl]-tetrahydro-pyran-2-yl]-6-methyl-pyridine] reads 75 to 95%. The result for `CC1(S(=O)(=O)c2cccc(C(F)(F)F)c2)CCOC(c2ccc(C(F)(F)F)nc2)C1` (racemic) [SC-306, 5-[4-Methyl-4-[[3-(trifluoromethyl)phenyl]sulfonyl]-tetrahydro-pyran-2-yl]-2-(trifluoromethyl)-pyridine] reads over 95%; that for `CCC1(S(=O)(=O)c2cccc(C(F)(F)F)c2)CCOC(c2cccnc2C)C1` (racemic) [SC-314, 3-[4-Ethyl-4-[[3-(trifluoromethyl)phenyl]sulfonyl]-tetrahydro-pyran-2-yl]-2-methyl-pyridine], 40 to 75%; that for `CCC1(S(=O)(=O)c2cccc(C(F)(F)F)c2)CCOC(c2ccc(C)nc2C)C1` (racemic) [SC-319, 3-[4-Ethyl-4-[[3-(trifluoromethyl)phenyl]sulfonyl]-tetrahydro-pyran-2-yl]-2,6-dimethyl-pyridine], 40 to 75%. Turning to `CC1(S(=O)(=O)c2cccc(C(F)(F)F)c2)CCOC(c2cnc(C3CC3)cn2)C1` (racemic) [SC-328, 2-Cyclopropyl-5-[4-methyl-4-[[3-(trifluoromethyl)phenyl]sulfonyl]-tetrahydro-pyran-2-yl]-pyrazine], the inhibition at 3 µM is over 95%. As for `CCC1(S(=O)(=O)c2cccc(C(F)(F)F)c2)CCOC(c2cnc(C3CC3)cn2)C1` (racemic) [SC-333, 2-Cyclopropyl-5-[4-ethyl-4-[[3-(trifluoromethyl)phenyl]sulfonyl]-tetrahydro-pyran-2-yl]-pyrazine], the inhibition at 3 µM was over 95%. For the compound `CC1(S(=O)(=O)c2cccc(C(F)(F)F)c2)CCOC(c2ccc(Br)nc2)C1` (racemic) [SC-337, 2-Bromo-5-[4-methyl-4-[[3-(trifluoromethyl)phenyl]sulfonyl]-tetrahydro-pyran-2-yl]-pyridine], the inhibition at 3 µM is over 95%. On to `CC1(S(=O)(=O)c2cccc(C(F)(F)F)c2)CCOC(c2ncc(C(F)(F)F)cc2Cl)C1` (racemic) [SC-340, 3-Chloro-2-(4-methyl-4-((3-(trifluoromethyl)phenyl)sulfonyl)tetrahydro-2H-pyran-2-yl)-5-(trifluoromethyl)pyridine], for which the inhibition at 3 µM was over 95%.

For `Cc1cccc(C2CC(S(=O)(=O)c3cccc(C(F)(F)F)c3)CCO2)n1` (racemic) [SC-341, 2-methyl-6-[4-[[3-(trifluoromethyl)phenyl]sulfonyl]-tetrahydro-pyran-2-yl]-pyridine], the inhibition at 3 µM is 40 to 75%.

Turning to `Cn1nc(C(F)(F)F)cc1C1CC(C)(S(=O)(=O)c2cccc(C(F)(F)F)c2)CCO1` (racemic) [SC-344, 1-Methyl-5-[4-methyl-4-[[3-(trifluoromethyl)phenyl]sulfonyl]-tetrahydro-pyran-2-yl]-3-(trifluoromethyl)-1H-pyrazole], the inhibition at 3 µM fell in the range of 75 to 95%. Take `CC1(S(=O)(=O)c2cccc(C(F)(F)F)c2)CCOC(c2ccc(C3CC3)nc2)C1` (racemic) [SC-347, 2-Cyclopropyl-5-[4-methyl-4-[[3-(trifluoromethyl)phenyl]sulfonyl]-tetrahydro-pyran-2-yl]-pyridine]: the inhibition at 3 µM was over 95%.

On to `CC1(S(=O)(=O)c2cccc(C(F)(F)F)c2)CCOC(c2cccc(C(F)(F)F)n2)C1` (racemic) [SC-351, 2-[4-Methyl-4-[[3-(trifluoromethyl)phenyl]sulfonyl]-tetrahydro-pyran-2-yl]-6-(trifluoromethyl)-pyridine], for which the inhibition at 3 µM is over 95%.

As to `CC1(S(=O)(=O)c2cccc(C(F)(F)F)c2)CCOC(c2ccc(N3CCCC3)nc2)C1` (racemic) [SC-406, 5-[4-Methyl-4-[[3-(trifluoromethyl)phenyl]sulfonyl]-tetrahydro-pyran-2-yl]-2-pyrrolidin-1-yl-pyridine], the inhibition at 3 µM is over 95%. As to `CC1(S(=O)(=O)c2cccc(C(F)(F)F)c2)CCOC(c2ccc(-n3cncn3)nc2)C1` (racemic) [SC-407, 5-[4-Methyl-4-[[3-(trifluoromethyl)phenyl]sulfonyl]-tetrahydro-pyran-2-yl]-2-(1H-[1,2,4]triazol-1-yl)-pyridine], the inhibition at 3 µM was in the range of 75 to 95%.

With `CNc1ccc(C2CC(C)(S(=O)(=O)c3cccc(C(F)(F)F)c3)CCO2)cn1` (racemic) [SC-412, Methyl-[5-[4-methyl-4-[[3-(trifluoromethyl)phenyl]sulfonyl]-tetrahydro-pyran-2-yl]-pyridin-2-yl]-amine], the inhibition at 3 µM lay within 75 to 95%. With `CC1(S(=O)(=O)c2cccc(C(F)(F)F)c2)CCOC(c2ccc(OC(F)F)nc2)C1` (racemic) [SC-417, 2-(Difluoro-methoxy)-5-[4-methyl-4-[[3-(trifluoromethyl)phenyl]sulfonyl]-tetrahydro-pyran-2-yl]-pyridine], the inhibition at 3 µM was over 95%. The figure for `COCCOc1ccc(C2CC(C)(S(=O)(=O)c3cccc(C(F)(F)F)c3)CCO2)cn1` (racemic) [SC-420, 2-(2-Methoxy-ethoxy)-5-[4-methyl-4-[[3-(trifluoromethyl)phenyl]sulfonyl]-tetrahydro-pyran-2-yl]-pyridine] is 75 to 95%; for `Cn1nc(S(C)(=O)=O)cc1C1CC(C)(S(=O)(=O)c2cccc(C(F)(F)F)c2)CCO1` (racemic) [SC-433, 1-Methyl-3-methylsulfonyl-5-[4-methyl-4-[[3-(trifluoromethyl)phenyl]sulfonyl]-tetrahydro-pyran-2-yl]-1H-pyrazole] it is 40 to 75%.
